In patent publication US5081031A, “Synthetic polypeptide with type IV collagen activity” (Regents of the University of Minnesota, priority 1989, dated 1992):
Entries after “also recorded” stand apart in the source; their conditions may differ.

What was measured:
[1] = biological target: T1, binding of heparin to peptide Hep-II (Homo sapiens, UniProt P08572); experiment: Heparin/peptide interaction specificity: competition of 3H-heparin binding to coated peptide Hep-II by glycosaminoglycans; details: Hep-II coated from 500 μg/ml; 3H-heparin 50,000 cpm per well; 2 h 37° C.
T1 construct: made in house; host or cells: chemical solid-phase (Merrifield) synthesis, no expression host
Experimental: To check the specificity of the interaction between heparin and peptide Hep-II or whether the heparin structure was also critical to this interaction, heparin along with other sulfated glucosaminoglycans, dextran and chondroitin sulfate were used in competition experiments. A standard amount of 50 μg of a solution containing 500 μg/ml of peptide Hep-II was coated on 96-well plates as described above. Wells were treated for two hours with 2 mg/ml BSA in wash buffer. Then, a final volume of 50 μl was added to each well, containing a standard amount of […] (50,000 cpm per well) and various amounts of non-radioactive heparin, dextran or chondroitin sulfate. After incubating for two hours at 37° C., the wells were washed and radioactivity was counted as described above in Example 1.

[2] = Heparin binding to plastic plates coated with peptide (3H-heparin direct binding)
Experimental: The ability of the synthesized peptide Hep-II to interact with heparin when coated on 96-well plastic plates was evaluated. Stock solutions of peptide Hep-II at a concentration of 500 μg/ml were prepared in phosphate-buffered saline containing 0.02% sodium azide. Fifty μl from each concentration was coated on the 96-well plates and left to dry overnight at 28° C. Then, wells were treated for two hours with […] of 2 mg/ml BSA and 6 mM phosphate, 10 mM NaCl, 68 μM CaCl2, pH 6.8 (wash buffer) in order to minimize non-specific binding. Next 50 μl of ^3 H-heparin (10 μg/ml) was added at increasing concentrations (0 to 1400 ng/well) for two hours at 37° C. The wells were then washed three times with wash buffer containing 0.05% Triton X-100 and finally they were incubated for thirty minutes at 60° C. with 200 μl of 0.5 N NaOH and 1% SDS. The amount of ^3 H-heparin bound at each concentration was quantitated with a Beckman LS-3801 liquid scintillation counter. […] Comparison with data obtained in the past using exactly the same methodology indicate that peptide Hep-II is at least 10 times stronger than peptide Hep-I (see FIG. 3B) and about 100 times stronger than type IV collagen, when used in the same coating concentrations.

endothelial cells [3] = experiment: Direct binding of 125I-labeled peptide Hep-II to cell surfaces; parameters: species or system bovine; details: about 5,000 cells, 15 min. at 4° C., increasing concentrations
Experimental: Endothelial cells were grown in culture as described in example 4 (supra). Cells used for this type of experiment were not labeled with radioactivity. Unlabeled cells were harvested by trypsinization (supra) on the day of the experiment. About 5,000 cells were mixed with 50 μl of a given concentration of peptide Hep-II in solution. Increasing concentrations of peptide Hep-II were used. The cells were incubated with the iodinated peptide for 15 min. at 4° C. and they were then pelleted by centrifugation. The cells were then resuspended and washed 3 times with DMEM containing 2 mg/ml BSA and 50 mM Hepes. Following the washes, the cells were pelleted for a final time in plastic tubes, the supernatant was decanted and the radioactivity of the pellet was quantitated in a Beckman scintillation counter. The binding of peptide Hep-II to endothelial cells is saturable (FIG. 8)----an indication of specificity. These experiments indicate that peptide Hep-II specifically interacts with the surfaces of endothelial cells.

[4] = test system: binding of heparin to type IV collagen; experiment: Inhibition of heparin binding to type IV collagen coated on plastic by peptide in solution; details: peptide in solution 0.5 mg/ml to 5 μg/ml; 3H-heparin 500 ng per well; type IV collagen coated at 60 μg/ml
Experimental: Peptide Hep-II in solution (and not absorbed to plastic), was screened for the ability to inhibit the binding of heparin to intact, native type IV collagen coated on plastic. This experimental approach avoids problems due to differential coating of peptides in heparin binding assays. Type IV collagen at 60 μg/ml in PBS was coated on 96-well plates, using 50 μl per well and dried overnight at 28° C. The wells were then treated for two hours with 2 mg/ml BSA in wash buffer (described above in Example 1). Peptide Hep-II at various dilutions ranging from 0.5 mg/ml to 5 μg/ml in PBS and CHAPS (cholamido-propyl-dimethyl-ammonio-propane-sulfonate) (a detergent used to avoid non-specific sticking) was co-incubated with a standard amount of ^3 H-heparin (500 ng per well […] final concentration) for two hours at 37° C. and the mixture was then transferred to the […] coated plate (50 μl ) and allowed to incubate for another two hours at 37° C. The wells were then washed and radioactivity was counted as described above. […] Peptide Hep-I is also shown in comparison.

[5] = test system: melanoma and endothelial cells; experiment: Promotion of cell adhesion and spreading (summary statements); assay type: cell-based; details: many cell types, including melanoma and endothelial cells
[6] = test system: bovine aortic endothelial cells; experiment: Direct adhesion of endothelial cells to peptide-coated plastic; assay type: cell-based; details: 35S-labeled cells, 120 min. at 37° C.; increasing coating concentrations
Experimental: Bovine aortic endothelial cells were isolated according to the following protocol. Aortas were obtained from a local slaughterhouse, washed in cold phosphate buffered saline (PBS) (136 mM NaCl, 2.6 mM KCl, 15.2 mM Na2 HPO4, pH 7.2) and processed within 2 hours. Crude collagenase (CLS III, 125-145 units per mg dry weight, Cooper Biomedical) was used at 2 mg/ml in Dulbecco's modified Eagle's medium (DMEM) (GIBCO). The vessel was clamped at the distal end, filled with the collagenase-PBS solution and digestion was carried out for 10 minutes. The lumenal contents were harvested, followed by the addition of fresh collagenase for two additional 10-minute periods. The enzyme-cell suspensions were added to an equal volume of DMEM containing 10% fetal bovine serum (FBS) to inhibit the enzyme and spun in a centrifuge at 400× g for 10 minutes. The resulting cell pellet was resuspended in DMEM containing 10% FBS, 100 units/ml of penicillin G, 100 μg/ml of streptomycin and 100 μg/ml of crude fibroblast growth factor. Cells are cultured in 75 cm^2 flasks in a humidified 5% CO2 atmosphere at 37° C. Cultures were fed twice a week with the same medium and cells were used in assays when approximately 75% confluent. […] At the end of the incubation period the wells were washed, bound radioactivity was solubilized by 1% SDS-0.5 N NaOH and quantitated in a Beckman scintillation counter. […]

endothelial cells [7] = experiment: Inhibition of the binding of 125I-labeled peptide Hep-II to the cell surface by excess unlabeled peptide; parameters: species or system bovine; details: unlabeled peptide up to 500-fold excess; 15 min. at 4° C.
Experimental: Endothelial cells were grown in culture as discussed in examples 4 and 5A (supra). On the day of the experiment, the cells were harvested by trypsinization (supra) and were co-incubated with 50 μl of peptide Hep-II. 50 μl a constant amount of ^125 I-labeled peptide Hep-II was mixed with increasing concentrations of unlabeled peptide Hep-II or a control peptide (maximal excess of unlabeled peptide: 500-fold over radiolabeled Hep-II). 50 μl of each concentration of unlabeled peptide which was mixed with radiolabeled Hep-II were then added to cells in suspension (5,000 cells per concentration of peptide). The cells were incubated with the mixture of unlabeled-radiolabeled peptide for 15 min. at 4° C. and they were then pelleted. The cells were subsequently washed and bound radioactivity was quantitated as described in example 4. […] These experiments provide confirmation that a specific interaction occur between endothelial-cell surfaces and peptide Hep-II.

[8] = test system: melanoma and endothelial cells; details: reported from U.S. Pat. No. 4,876,332; cited from earlier work
[9] = reported from U.S. Pat. No. 4,876,332; cited from earlier work

With chondroitin sulfate the “competition for the binding of tritiated heparin to peptide Hep-II” value (“competition for the binding” for short) [1] was “cannot mimic this effect except at extremely high concentrations”.

In the case of dextran, the “competition for the binding” value [1] is reported as “substantially more dextran is needed to achieve similar levels of competition”.

With heparin the “competition for the binding” value [1] was “able to compete for the binding of tritiated heparin to peptide Hep-II at very low concentrations”.

With “leu-ala-gly-ser-cys-leu-ala-arg-phe-ser-thr-met (LAGSCLARFSTM) [Hep-II, type IV collagen residues 49-60 from the carboxyl-terminus of the α2 chain of the NCl domain]” the “heparin binding to peptide coated on plastic” value ([2]; peptide coated on 96-well plates from 500 μg/ml stock, 3H-heparin 0 to 1400 ng/well, 2 h 37° C.) was “extremely potent promoter of heparin-binding; also recorded: very potent binder of heparin”, the “heparin binding strength relative to type IV collagen” value ([2]; same coating concentrations, same methodology) was “about 100 times” and the “binding of 125I-labeled peptide to endothelial cells” value (endothelial cells [3]) was “saturable”. The “inhibition of heparin binding to type IV collagen” value [4] was “strong inhibitor of heparin binding to type IV collagen”, the “promotion of cell adhesion/attachment and spreading” value [5] was “potent promoter of cell adhesion and spreading; also recorded: potent promoter of cell attachment and spreading” and the “adhesion of endothelial cells to coated substrate” value [6] was “promotes substantial adhesion of endothelial cells even at very low plating concentrations”. For the same substance, the “competition of the binding of radiolabeled Hep-II to the surface of endothelial cells” value (endothelial cells [7]) was “can be competed only by an excess of unlabeled peptide Hep-II”.

In the case of “thr-ala-gly-ser-cys-leu-arg-lys-phe-ser-thr-met (TAGSCLRKFSTM) [Hep-I, peptide from the NCl domain of the α1(IV) chain, position 49-60 from the carboxyl terminus; U.S. Pat. No. 4,876,332]”, the “promotion of cell adhesion (earlier U.S. Pat. No. 4,876,332)” value [8] is listed as “promote cell adhesion” and the “heparin binding (earlier U.S. Pat. No. 4,876,332)” value [9] is listed as “ability to bind heparin”.
